Measurements reported in patent US20120034193A1, “TREATMENT OF NEUROTROPHIC FACTOR MEDIATED DISORDERS” (priority 2009, published 2012).

Assays:
Assay in all cases: Binding assay
Details in all cases: smilagenin 1 μM
[1] = molecular target: 5-Hydroxytryptamine, 5-HT2B (Homo sapiens, UniProt P41595)
Protocol: (§1) The receptor binding was investigated using the following method: Sarsasapogenin was incubated with tissue or cell homogenate that expressed the receptor of interest and a known concentration a radiolabelled compound with affinity for the receptor of interest. After the incubation period the non-bound radiolabelled compound was removed and the amount of specific binding was quantified. The amount of specific binding in the presence and absence of sarsasapogenin were compared and the percent inhibition of the binding of the radiolabelled compound by sarsasapogenin was calculated. The source of the receptor, the incubation conditions, the radiolabelled compound used varied depending on each specific assay.
(§2) Using the same methods as described above, the binding of smilagenin (1 μM) to the receptors listed in Table 2 below, and the effect of smilagenin on the activity of the enzymes listed in Table 2 below, were investigated.

[2] = molecular target: 5-Hydroxytryptamine, 5-HT3 (Homo sapiens, UniProt P46098)
Protocol: as §1, §2

[3] = molecular target: Adensonine A2A (Homo sapiens, UniProt P29274)
Protocol: as §1, §2

[4] = molecular target: Adrenergic α2A (Homo sapiens, UniProt P08913)
Chain of Adrenergic α2A (P08913 whole entry): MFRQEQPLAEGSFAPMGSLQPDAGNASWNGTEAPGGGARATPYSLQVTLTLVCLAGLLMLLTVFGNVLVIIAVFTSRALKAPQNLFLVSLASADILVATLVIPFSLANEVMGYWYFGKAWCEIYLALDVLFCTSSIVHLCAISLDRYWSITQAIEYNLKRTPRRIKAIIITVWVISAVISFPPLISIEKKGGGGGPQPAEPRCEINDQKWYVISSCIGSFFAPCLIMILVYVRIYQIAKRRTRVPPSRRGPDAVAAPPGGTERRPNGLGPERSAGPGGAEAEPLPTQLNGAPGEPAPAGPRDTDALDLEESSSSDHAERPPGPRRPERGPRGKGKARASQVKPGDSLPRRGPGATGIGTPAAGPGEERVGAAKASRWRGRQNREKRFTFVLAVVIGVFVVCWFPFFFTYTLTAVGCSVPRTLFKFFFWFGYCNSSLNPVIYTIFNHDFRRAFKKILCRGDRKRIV
Protocol: as §1, §2

[5] = molecular target: Adrenergic β2 (Homo sapiens, UniProt P07550)
Protocol: as §1, §2

[6] = molecular target: Adrenergic β3 (Homo sapiens, UniProt P13945)
Protocol: as §1, §2

[7] = molecular target: Adrenomedullin AM1 (Homo sapiens, UniProt O60895+Q16602)
Chain of Adrenomedullin AM1 (Q16602 23-461): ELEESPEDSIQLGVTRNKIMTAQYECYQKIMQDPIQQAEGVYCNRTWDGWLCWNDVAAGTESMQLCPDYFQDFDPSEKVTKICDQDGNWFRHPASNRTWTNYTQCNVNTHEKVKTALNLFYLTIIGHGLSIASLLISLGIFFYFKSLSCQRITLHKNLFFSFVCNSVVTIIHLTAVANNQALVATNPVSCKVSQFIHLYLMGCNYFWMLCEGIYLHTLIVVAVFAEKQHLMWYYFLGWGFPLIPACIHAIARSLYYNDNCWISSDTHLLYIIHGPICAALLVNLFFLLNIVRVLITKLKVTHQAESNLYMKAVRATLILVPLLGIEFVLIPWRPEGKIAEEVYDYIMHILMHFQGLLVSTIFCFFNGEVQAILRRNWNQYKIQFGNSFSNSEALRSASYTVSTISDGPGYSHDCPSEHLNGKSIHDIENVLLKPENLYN
Chain of Adrenomedullin AM1 (O60895 43-175 partner): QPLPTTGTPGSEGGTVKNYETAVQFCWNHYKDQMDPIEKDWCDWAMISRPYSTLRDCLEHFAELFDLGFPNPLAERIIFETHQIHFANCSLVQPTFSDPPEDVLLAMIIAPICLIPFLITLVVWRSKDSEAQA
Protocol: as §1, §2

[8] = molecular target: Bombesin BB2 (Homo sapiens, UniProt P30550)
Chain of Bombesin BB2 (P30550 whole entry): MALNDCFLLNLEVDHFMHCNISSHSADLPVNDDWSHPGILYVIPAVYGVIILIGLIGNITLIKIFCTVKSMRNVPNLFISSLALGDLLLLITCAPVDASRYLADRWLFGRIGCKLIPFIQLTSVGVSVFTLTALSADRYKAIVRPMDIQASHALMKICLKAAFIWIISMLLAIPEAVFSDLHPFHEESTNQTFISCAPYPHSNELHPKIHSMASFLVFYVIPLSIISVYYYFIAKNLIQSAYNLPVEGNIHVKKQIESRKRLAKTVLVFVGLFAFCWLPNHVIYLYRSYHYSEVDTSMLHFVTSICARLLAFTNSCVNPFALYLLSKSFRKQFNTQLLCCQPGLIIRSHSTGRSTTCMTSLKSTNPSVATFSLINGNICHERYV
Protocol: as §1, §2

[9] = molecular target: Calcitonin (Homo sapiens, UniProt P30988)
Chain of Calcitonin (P30988 25-474): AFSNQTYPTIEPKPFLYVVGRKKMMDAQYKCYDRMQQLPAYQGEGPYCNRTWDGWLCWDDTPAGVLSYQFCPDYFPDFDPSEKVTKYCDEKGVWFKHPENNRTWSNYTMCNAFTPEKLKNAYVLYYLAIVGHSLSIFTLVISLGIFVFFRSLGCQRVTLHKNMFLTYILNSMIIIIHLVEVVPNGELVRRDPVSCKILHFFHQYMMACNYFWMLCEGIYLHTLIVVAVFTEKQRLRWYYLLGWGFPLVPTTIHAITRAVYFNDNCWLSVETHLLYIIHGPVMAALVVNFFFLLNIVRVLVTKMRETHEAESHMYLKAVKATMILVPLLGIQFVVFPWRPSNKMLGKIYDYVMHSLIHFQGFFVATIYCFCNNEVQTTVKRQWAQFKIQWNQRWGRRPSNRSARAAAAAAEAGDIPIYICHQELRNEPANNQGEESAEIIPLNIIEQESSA
Protocol: as §1, §2

[10] = molecular target: Chemokine CCR2B (Homo sapiens, UniProt P41597)
Chain of Chemokine CCR2B (P41597 1-360 isoform P41597-2): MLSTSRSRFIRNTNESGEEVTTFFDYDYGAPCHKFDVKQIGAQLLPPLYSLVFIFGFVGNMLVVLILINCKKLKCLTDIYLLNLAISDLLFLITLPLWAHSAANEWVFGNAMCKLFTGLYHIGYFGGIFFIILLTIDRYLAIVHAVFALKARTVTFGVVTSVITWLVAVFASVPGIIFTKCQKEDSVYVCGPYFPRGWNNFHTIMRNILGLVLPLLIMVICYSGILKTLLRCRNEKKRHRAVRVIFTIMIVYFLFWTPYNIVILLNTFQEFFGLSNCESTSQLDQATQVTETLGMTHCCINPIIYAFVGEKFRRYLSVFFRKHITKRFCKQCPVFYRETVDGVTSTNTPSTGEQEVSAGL
Protocol: as §1, §2

[11] = molecular target: Chemokine CCR4 (Homo sapiens, UniProt P51679)
Protocol: as §1, §2

[12] = molecular target: Chemokine CCR5 (Homo sapiens, UniProt P51681)
Protocol: as §1, §2

[13] = molecular target: Dopamine D3 (Homo sapiens, UniProt P35462)
Protocol: as §1, §2

[14] = molecular target: Endothelin ETA (Homo sapiens, UniProt P25101)
Protocol: as §1, §2

[15] = molecular target: Endothelin ETB (Homo sapiens, UniProt P24530)
Protocol: as §1, §2

[16] = molecular target: T1, Galanin GAL1 (Homo sapiens, UniProt P47211)
T1 construct: host or cells: tissue or cell homogenate (not specified)
Protocol: as §1, §2

[17] = molecular target: T2, Galanin GAL2 (Homo sapiens, UniProt O43603)
T2 construct: host or cells: tissue or cell homogenate (not specified)
Protocol: as §1, §2

[18] = molecular target: T3, Growth Hormone Secretagogue (GHS, Ghrelin) (Homo sapiens, UniProt Q92847)
T3 construct: host or cells: tissue or cell homogenate (not specified)
Protocol: as §1, §2

[19] = molecular target: Interleukin IL-2 (Mus musculus, UniProt P01590)
Protocol: as §1, §2

[20] = molecular target: Interleukin IL-6 (Homo sapiens, UniProt P08887)
Protocol: as §1, §2

[21] = molecular target: Leptin (Mus musculus, UniProt P48356)
Protocol: as §1, §2

[22] = molecular target: Melatonin MT2 (Homo sapiens, UniProt P49286)
Chain of Melatonin MT2 (P49286 whole entry): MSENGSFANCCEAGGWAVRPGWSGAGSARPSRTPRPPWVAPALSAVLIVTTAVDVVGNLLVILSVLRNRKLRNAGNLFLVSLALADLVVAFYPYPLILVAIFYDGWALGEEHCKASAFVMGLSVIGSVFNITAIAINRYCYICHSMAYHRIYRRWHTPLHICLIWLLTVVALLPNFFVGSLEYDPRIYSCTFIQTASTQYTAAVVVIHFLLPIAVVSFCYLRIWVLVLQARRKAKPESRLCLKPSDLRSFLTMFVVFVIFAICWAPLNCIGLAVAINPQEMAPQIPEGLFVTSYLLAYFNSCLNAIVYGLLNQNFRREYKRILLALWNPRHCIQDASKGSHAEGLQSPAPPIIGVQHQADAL
Protocol: as §1, §2

[23] = molecular target: T4, Muscarinic M1 (Homo sapiens, UniProt P11229)
T4 construct: host or cells: tissue or cell homogenate, not specified
Protocol: as §1, §2

[24] = molecular target: N-Formyl Peptide Receptor-Like FPRL1 (Homo sapiens, UniProt P25090)
Protocol: as §1, §2

[25] = molecular target: Neuromedin U MNU1 (Homo sapiens, UniProt Q9HB89)
Protocol: as §1, §2

[26] = molecular target: Neuropeptide Y Y2 (Homo sapiens, UniProt P49146)
Protocol: as §1, §2

[27] = molecular target: Neurotensin NT1 (Homo sapiens, UniProt P30989)
Protocol: as §1, §2

[28] = molecular target: Opiate μ (OP3, MOP) (Homo sapiens, UniProt P35372)
Chain of Opiate μ (OP3, MOP) (P35372 whole entry): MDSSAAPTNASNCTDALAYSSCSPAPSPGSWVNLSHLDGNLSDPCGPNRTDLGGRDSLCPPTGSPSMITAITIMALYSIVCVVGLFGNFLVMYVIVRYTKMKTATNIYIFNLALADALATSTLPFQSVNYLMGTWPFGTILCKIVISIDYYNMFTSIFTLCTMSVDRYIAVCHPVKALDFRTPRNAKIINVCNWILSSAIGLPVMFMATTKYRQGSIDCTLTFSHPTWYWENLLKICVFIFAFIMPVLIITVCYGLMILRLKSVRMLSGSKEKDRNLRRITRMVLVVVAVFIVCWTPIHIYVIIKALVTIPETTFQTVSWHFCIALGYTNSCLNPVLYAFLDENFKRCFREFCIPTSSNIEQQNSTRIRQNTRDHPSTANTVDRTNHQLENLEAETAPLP
Protocol: as §1, §2

[29] = molecular target: Orphanin ORL1 (Homo sapiens, UniProt P41146)
Chain of Orphanin ORL1 (P41146 whole entry): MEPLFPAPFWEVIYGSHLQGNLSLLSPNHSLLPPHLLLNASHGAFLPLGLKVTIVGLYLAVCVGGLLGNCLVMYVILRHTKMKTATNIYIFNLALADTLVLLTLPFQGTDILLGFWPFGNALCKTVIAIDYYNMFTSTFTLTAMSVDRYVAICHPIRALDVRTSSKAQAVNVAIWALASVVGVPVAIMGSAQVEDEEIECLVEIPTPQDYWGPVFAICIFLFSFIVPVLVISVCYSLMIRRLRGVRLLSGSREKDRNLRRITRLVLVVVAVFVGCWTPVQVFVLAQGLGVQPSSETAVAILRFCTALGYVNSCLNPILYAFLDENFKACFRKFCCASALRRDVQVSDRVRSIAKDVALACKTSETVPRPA
Protocol: as §1, §2

[30] = molecular target: Platelet Activating Factor (PAF) (Homo sapiens, UniProt P25105)
Chain of Platelet Activating Factor (PAF) (P25105 whole entry): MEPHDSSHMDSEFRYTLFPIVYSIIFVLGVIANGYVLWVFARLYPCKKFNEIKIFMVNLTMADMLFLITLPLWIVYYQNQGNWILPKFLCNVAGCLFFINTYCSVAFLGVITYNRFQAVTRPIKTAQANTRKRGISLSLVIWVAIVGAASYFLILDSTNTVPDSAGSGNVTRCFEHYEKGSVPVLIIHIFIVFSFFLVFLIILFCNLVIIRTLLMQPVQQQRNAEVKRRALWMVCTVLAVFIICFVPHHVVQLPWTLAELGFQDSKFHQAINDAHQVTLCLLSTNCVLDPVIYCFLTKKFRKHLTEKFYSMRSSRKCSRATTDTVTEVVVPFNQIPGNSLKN
Protocol: as §1, §2

[31] = molecular target: Prostanoid EP2 (Homo sapiens, UniProt P43116)
Protocol: as §1, §2

[32] = molecular target: Sigma σ2 (Rattus norvegicus, UniProt Q5U3Y7)
Protocol: as §1, §2

[33] = molecular target: Transporter, Choline (Rattus norvegicus, UniProt Q9JMD7)
Protocol: as §1, §2

[34] = molecular target: Transporter, Dopamine (DAT) (Homo sapiens, UniProt Q01959)
Chain of Transporter, Dopamine (DAT) (Q01959 whole entry): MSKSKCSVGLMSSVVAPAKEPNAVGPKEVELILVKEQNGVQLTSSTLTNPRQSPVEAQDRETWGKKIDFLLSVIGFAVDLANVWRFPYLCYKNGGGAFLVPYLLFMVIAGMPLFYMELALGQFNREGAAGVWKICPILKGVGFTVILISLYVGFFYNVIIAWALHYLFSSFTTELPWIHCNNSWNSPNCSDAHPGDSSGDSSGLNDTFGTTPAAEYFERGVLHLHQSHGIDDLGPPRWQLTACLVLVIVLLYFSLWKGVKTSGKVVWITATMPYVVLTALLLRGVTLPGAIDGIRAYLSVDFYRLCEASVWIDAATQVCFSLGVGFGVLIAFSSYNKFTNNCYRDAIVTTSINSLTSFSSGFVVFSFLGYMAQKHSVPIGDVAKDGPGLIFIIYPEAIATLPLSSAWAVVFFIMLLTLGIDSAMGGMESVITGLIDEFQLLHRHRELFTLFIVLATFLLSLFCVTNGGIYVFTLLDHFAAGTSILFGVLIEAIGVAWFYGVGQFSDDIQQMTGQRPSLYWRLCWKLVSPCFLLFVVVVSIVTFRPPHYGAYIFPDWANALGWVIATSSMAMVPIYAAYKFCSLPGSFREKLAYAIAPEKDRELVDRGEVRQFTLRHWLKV
Protocol: as §1, §2

[35] = molecular target: T5, Vasopressin V1B (Homo sapiens, UniProt P47901)
T5 construct: host or cells: tissue or cell homogenate, not specified
Protocol: as §1, §2

[36] = molecular target: T6, Vitamin D3 (Homo sapiens, UniProt P11473)
T6 construct: host or cells: tissue or cell homogenate, not specified
T6 sequence (P11473 whole entry): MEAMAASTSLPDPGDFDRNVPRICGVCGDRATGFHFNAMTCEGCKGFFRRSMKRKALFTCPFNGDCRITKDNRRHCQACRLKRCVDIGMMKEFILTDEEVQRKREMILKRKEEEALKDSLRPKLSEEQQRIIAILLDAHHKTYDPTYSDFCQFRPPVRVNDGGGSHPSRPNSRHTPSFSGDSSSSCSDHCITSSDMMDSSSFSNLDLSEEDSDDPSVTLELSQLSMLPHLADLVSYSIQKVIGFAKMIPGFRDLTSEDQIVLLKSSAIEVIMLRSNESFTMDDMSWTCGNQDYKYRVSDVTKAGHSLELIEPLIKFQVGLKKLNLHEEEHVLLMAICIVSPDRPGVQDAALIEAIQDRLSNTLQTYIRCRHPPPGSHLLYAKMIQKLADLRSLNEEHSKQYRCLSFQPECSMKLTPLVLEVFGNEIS
Protocol: as §1, §2

Question: How did the “Effect (%)” value [1] turn out when C[C@@H]1CC[C@@]2(OC1)O[C@H]1C[C@H]3[C@@H]4CC[C@@H]5C[C@@H](O)CC[C@]5(C)[C@H]4CC[C@]3(C)[C@H]1[C@@H]2C [Smilagenin, smilagenin] was run?
Answer: NS (NS = No significant response. Significance was taken as ≧30% stimulation or inhibition)

Question: And the “Effect (%)” value [2]?
Answer: NS (NS = No significant response. Significance was taken as ≧30% stimulation or inhibition)

Question: What about the “Effect (%)” value [3] of the same molecule?
Answer: NS (NS = No significant response. Significance was taken as ≧30% stimulation or inhibition)

Question: What about the “Effect (%)” value [4] of the same molecule?
Answer: NS (NS = No significant response. Significance was taken as ≧30% stimulation or inhibition)

Question: And the “Effect (%)” value [5]?
Answer: NS (NS = No significant response. Significance was taken as ≧30% stimulation or inhibition)

Question: What about the “Effect (%)” value [6] of the same molecule?
Answer: NS (NS = No significant response. Significance was taken as ≧30% stimulation or inhibition)

Question: And the “Effect (%)” value [7]?
Answer: NS (NS = No significant response. Significance was taken as ≧30% stimulation or inhibition)

Question: What about the “Effect (%)” value [8] of the same molecule?
Answer: NS (NS = No significant response. Significance was taken as ≧30% stimulation or inhibition)

Question: What about the “Effect (%)” value [9] of the same molecule?
Answer: NS (NS = No significant response. Significance was taken as ≧30% stimulation or inhibition)

Question: And the “Effect (%)” value [10]?
Answer: NS (NS = No significant response. Significance was taken as ≧30% stimulation or inhibition)

Question: What about the “Effect (%)” value [11] of the same molecule?
Answer: NS (NS = No significant response. Significance was taken as ≧30% stimulation or inhibition)

Question: What about the “Effect (%)” value [12] of the same molecule?
Answer: NS (NS = No significant response. Significance was taken as ≧30% stimulation or inhibition)

Question: What about the “Effect (%)” value [13] of the same molecule?
Answer: NS (NS = No significant response. Significance was taken as ≧30% stimulation or inhibition)

Question: What about the “Effect (%)” value [14] of the same molecule?
Answer: NS (NS = No significant response. Significance was taken as ≧30% stimulation or inhibition)

Question: And the “Effect (%)” value [15]?
Answer: NS (NS = No significant response. Significance was taken as ≧30% stimulation or inhibition)

Question: And the “Effect (%)” value [16]?
Answer: NS (NS = No significant response. Significance was taken as ≧30% stimulation or inhibition)

Question: And the “Effect (%)” value [17]?
Answer: NS (NS = No significant response. Significance was taken as ≧30% stimulation or inhibition)

Question: And the “Effect (%)” value [18]?
Answer: NS (NS = No significant response. Significance was taken as ≧30% stimulation or inhibition)

Question: What about the “Effect (%)” value [19] of the same molecule?
Answer: NS (NS = No significant response. Significance was taken as ≧30% stimulation or inhibition)

Question: And the “Effect (%)” value [20]?
Answer: NS (NS = No significant response. Significance was taken as ≧30% stimulation or inhibition)

Question: And the “Effect (%)” value [21]?
Answer: NS (NS = No significant response. Significance was taken as ≧30% stimulation or inhibition)

Question: And the “Effect (%)” value [22]?
Answer: NS (NS = No significant response. Significance was taken as ≧30% stimulation or inhibition)

Question: What about the “Effect (%)” value [23] of the same molecule?
Answer: NS (NS = No significant response. Significance was taken as ≧30% stimulation or inhibition)

Question: What about the “Effect (%)” value [24] of the same molecule?
Answer: NS (NS = No significant response. Significance was taken as ≧30% stimulation or inhibition)

Question: And the “Effect (%)” value [25]?
Answer: NS (NS = No significant response. Significance was taken as ≧30% stimulation or inhibition)

Question: And the “Effect (%)” value [26]?
Answer: NS (NS = No significant response. Significance was taken as ≧30% stimulation or inhibition)

Question: And the “Effect (%)” value [27]?
Answer: NS (NS = No significant response. Significance was taken as ≧30% stimulation or inhibition)

Question: What about the “Effect (%)” value [28] of the same molecule?
Answer: NS (NS = No significant response. Significance was taken as ≧30% stimulation or inhibition)

Question: And the “Effect (%)” value [29]?
Answer: NS (NS = No significant response. Significance was taken as ≧30% stimulation or inhibition)

Question: And the “Effect (%)” value [30]?
Answer: NS (NS = No significant response. Significance was taken as ≧30% stimulation or inhibition)

Question: What about the “Effect (%)” value [31] of the same molecule?
Answer: NS (NS = No significant response. Significance was taken as ≧30% stimulation or inhibition)

Question: And the “Effect (%)” value [32]?
Answer: NS (NS = No significant response. Significance was taken as ≧30% stimulation or inhibition)

Question: And the “Effect (%)” value [33]?
Answer: NS (NS = No significant response. Significance was taken as ≧30% stimulation or inhibition)

Question: What about the “Effect (%)” value [34] of the same molecule?
Answer: NS (NS = No significant response. Significance was taken as ≧30% stimulation or inhibition)

Question: What about the “Effect (%)” value [35] of the same molecule?
Answer: NS (NS = No significant response. Significance was taken as ≧30% stimulation or inhibition)

Question: And the “Effect (%)” value [36]?
Answer: NS (NS = No significant response. Significance was taken as ≧30% stimulation or inhibition)
